In publication PMC10682951, “Structure-function and rational design of a spider toxin Ssp1a at human voltage-gated sodium channel subtypes” (Frontiers in Pharmacology, 2023):
pIC50: −log10 of the molar value. Bridge positions count the residues as written; N and C are the ends. Peptide text beside a SMILES is read from it.

What was measured:
Assay type in all cases: cell-based
[1] = target: T1, hNaV1.2 (Homo sapiens, UniProt Q99250); assay: Automated whole-cell patch-clamp (QPatch 16X), hNaV1.2; conditions: for pIC50: HEK293 cells expressing hNaV1.2 + β1 subunit, QPatch 16X, holding −80 mV, step to 0 mV, peptide incubated 2 min, 0.1% BSA, mean, SEM and n (2-7); for Loss (reduction) in potency vs rSsp1a at hNaV1.2: relative to wild type rSsp1a
T1 construct: host or cells: HEK293
Procedure, shortened: (§1)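 HEK293 cells stably expressing the channel (human subtypes with β1 subunit), held at −80 mV; 2 min peptide pre-incubation, then 20 ms steps to 0 mV after a 200 ms −120 mV conditioning pulse. Extracellular pH 7.3 with 20 mM TEA-Cl, CsF-based pipette solution, 0.1% BSA; IC50 from four-parameter Hill fit.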

[2] = target: T2, hNaV1.3 (Homo sapiens, UniProt Q9NY46); assay: Automated whole-cell patch-clamp (QPatch 16X), hNaV1.3; conditions: HEK293 cells expressing hNaV1.3 + β1 subunit; QPatch 16X; holding −80 mV, step to 0 mV; peptide incubated 2 min; 0.1% BSA; mean, SEM and n (3-12)
T2 construct: host or cells: HEK293
Procedure, shortened: as §1

[3] = target: T3, hNaV1.7 (Homo sapiens, UniProt Q15858); assay: Automated whole-cell patch-clamp (QPatch 16X), hNaV1.7; conditions: for pIC50: HEK293 cells expressing hNaV1.7 + β1 subunit, QPatch 16X, holding −80 mV, step to 0 mV, peptide incubated 2 min, 0.1% BSA, mean, SEM and n (3-9); for Loss (reduction) in potency vs rSsp1a at hNaV1.7: relative to wild type rSsp1a
T3 construct: host or cells: HEK293
Procedure, shortened: as §1

T1 sequence (Q07699 19-218): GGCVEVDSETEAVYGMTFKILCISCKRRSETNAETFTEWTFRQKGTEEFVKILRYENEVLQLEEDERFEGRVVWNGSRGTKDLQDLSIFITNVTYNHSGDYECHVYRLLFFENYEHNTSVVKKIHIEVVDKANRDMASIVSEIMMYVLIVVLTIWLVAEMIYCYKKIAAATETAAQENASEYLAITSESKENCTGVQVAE
T1 sequence (Q99250 whole entry): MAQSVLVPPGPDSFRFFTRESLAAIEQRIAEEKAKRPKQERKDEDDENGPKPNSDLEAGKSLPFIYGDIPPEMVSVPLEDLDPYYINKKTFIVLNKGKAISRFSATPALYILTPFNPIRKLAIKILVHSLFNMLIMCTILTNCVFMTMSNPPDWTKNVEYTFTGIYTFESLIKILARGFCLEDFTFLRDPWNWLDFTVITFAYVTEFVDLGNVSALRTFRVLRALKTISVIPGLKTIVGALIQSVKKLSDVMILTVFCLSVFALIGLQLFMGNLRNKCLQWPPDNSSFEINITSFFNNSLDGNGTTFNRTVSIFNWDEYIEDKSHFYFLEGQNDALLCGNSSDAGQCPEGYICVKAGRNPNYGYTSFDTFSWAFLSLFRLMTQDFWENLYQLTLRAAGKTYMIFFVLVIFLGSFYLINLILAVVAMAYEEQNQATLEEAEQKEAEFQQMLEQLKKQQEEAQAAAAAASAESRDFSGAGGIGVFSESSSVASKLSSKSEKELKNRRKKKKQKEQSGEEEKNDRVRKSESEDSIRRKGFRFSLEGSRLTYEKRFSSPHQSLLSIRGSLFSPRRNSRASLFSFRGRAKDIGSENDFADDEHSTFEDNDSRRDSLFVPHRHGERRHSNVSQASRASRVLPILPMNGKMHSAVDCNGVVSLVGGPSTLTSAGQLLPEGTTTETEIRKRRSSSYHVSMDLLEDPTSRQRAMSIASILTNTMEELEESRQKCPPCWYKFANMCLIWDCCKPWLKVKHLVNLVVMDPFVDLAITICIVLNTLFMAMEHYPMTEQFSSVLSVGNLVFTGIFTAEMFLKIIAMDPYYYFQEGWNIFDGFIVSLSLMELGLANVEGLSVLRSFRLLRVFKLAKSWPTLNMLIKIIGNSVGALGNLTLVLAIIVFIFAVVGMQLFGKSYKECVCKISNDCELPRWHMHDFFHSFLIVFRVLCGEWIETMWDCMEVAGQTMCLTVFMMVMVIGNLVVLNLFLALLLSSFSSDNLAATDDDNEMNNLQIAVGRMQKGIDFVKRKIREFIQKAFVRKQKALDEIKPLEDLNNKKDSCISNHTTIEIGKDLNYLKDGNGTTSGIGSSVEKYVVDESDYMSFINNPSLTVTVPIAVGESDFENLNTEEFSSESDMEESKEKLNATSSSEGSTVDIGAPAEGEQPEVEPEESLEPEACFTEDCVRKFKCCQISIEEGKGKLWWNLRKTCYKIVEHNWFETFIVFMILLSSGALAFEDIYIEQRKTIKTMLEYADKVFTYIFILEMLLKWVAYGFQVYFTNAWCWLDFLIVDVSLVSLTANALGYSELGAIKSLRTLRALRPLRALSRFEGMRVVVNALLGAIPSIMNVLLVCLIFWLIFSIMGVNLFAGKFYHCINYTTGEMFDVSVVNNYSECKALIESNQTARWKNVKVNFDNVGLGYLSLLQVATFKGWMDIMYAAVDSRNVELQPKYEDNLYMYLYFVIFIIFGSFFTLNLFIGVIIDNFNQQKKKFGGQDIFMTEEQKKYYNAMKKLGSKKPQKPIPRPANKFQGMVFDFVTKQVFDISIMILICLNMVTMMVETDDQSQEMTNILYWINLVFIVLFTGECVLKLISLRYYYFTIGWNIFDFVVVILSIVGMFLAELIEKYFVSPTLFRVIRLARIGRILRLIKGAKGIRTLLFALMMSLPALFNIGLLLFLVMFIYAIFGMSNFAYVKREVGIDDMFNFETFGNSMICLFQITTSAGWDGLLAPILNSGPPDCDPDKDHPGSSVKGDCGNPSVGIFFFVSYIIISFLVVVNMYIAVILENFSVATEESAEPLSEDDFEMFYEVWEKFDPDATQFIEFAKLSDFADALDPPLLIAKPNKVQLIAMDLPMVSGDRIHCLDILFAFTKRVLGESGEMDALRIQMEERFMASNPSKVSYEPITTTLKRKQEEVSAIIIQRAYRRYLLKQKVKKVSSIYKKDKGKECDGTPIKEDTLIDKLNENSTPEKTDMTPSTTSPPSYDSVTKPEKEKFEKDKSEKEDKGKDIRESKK
T3 sequence (Q15858 whole entry): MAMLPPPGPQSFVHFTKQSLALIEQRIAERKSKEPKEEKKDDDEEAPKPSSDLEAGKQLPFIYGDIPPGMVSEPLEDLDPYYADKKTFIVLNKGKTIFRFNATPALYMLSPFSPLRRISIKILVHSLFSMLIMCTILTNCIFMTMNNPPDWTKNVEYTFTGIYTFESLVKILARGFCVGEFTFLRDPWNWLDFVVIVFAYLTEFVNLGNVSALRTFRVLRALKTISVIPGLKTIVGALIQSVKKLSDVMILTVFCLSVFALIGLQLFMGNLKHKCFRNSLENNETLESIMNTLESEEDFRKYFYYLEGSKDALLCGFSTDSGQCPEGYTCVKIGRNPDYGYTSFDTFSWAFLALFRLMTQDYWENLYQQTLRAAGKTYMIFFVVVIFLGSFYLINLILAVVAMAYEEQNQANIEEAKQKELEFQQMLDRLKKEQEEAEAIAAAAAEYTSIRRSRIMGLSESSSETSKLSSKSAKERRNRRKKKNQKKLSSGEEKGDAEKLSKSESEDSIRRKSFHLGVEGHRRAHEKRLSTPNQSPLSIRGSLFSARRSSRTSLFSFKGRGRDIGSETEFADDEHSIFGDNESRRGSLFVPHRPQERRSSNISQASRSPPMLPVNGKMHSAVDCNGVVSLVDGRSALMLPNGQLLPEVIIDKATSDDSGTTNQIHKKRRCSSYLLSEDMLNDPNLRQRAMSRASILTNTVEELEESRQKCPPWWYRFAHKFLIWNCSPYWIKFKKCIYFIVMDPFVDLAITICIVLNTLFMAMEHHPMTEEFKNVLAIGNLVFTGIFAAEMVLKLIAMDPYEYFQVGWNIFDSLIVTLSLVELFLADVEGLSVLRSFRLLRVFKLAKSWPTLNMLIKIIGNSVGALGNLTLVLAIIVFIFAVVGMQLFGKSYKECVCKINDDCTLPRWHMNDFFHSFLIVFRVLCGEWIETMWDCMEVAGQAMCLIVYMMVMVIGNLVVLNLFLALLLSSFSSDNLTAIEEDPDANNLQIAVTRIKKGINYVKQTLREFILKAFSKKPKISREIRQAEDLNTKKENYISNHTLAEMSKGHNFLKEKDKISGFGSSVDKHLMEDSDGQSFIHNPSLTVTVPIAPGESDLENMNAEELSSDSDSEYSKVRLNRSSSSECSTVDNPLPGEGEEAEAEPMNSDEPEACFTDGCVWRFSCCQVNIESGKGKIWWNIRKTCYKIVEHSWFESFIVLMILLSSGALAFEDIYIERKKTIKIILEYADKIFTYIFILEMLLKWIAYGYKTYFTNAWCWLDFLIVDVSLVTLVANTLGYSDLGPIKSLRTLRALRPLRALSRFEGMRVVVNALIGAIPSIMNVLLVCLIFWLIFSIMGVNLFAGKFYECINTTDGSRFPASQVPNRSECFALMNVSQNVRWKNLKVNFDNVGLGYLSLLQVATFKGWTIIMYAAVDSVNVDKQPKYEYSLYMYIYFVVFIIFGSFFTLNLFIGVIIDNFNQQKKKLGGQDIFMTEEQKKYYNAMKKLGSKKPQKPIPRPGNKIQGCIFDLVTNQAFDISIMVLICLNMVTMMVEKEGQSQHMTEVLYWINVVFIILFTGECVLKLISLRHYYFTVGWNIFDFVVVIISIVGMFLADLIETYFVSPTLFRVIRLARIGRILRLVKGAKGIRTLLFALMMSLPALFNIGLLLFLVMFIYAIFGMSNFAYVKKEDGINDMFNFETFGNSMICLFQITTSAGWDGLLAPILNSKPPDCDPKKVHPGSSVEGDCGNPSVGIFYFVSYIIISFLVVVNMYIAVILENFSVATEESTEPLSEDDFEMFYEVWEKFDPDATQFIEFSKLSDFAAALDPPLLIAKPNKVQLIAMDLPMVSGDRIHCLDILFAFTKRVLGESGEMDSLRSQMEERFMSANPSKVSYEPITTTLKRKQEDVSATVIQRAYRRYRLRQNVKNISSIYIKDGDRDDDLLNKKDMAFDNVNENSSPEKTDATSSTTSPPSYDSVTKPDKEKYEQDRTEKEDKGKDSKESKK
T3 sequence (Q07699 19-218, further chain): as the sequence (Q07699 19-218) above

How did the pIC50 [1] turn out when CC(C)C[C@H](NC(=O)[C@H](CC(=O)O)NC(=O)[C@H](Cc1ccc(O)cc1)NC(=O)[C@H](CCCNC(=N)N)NC(=O)[C@@H]1CSSC[C@@H]2NC(=O)[C@H](CCCCN)NC(=O)[C@H](CC(N)=O)NC(=O)[C@H](CC(N)=O)NC(=O)[C@H](CC(N)=O)NC(=O)[C@@H]3CCCN3C(=O)[C@H](CC(=O)O)NC(=O)[C@@H]3CSSC[C@H](NC(=O)[C@H](C(C)C)NC(=O)[C@H](Cc4ccc(O)cc4)NC(=O)CNC(=O)[C@H](CCC(=O)O)NC(=O)[C@H](CSSC[C@H](NC(=O)[C@H](CC(=O)O)NC(=O)CN)C(=O)N[C@@H](CC(C)C)C(=O)NCC(=O)N[C@@H](Cc4c[nH]c5ccccc45)C(=O)N[C@@H](Cc4ccccc4)C(=O)N[C@@H](CO)C(=O)NCC(=O)N3)NC2=O)C(=O)N[C@@H](Cc2c[nH]cn2)C(=O)N[C@@H](C)C(=O)N[C@@H](CCCCN)C(=O)N[C@@H](Cc2ccc(O)cc2)C(=O)N2CCC[C@H]2C(=O)N[C@@H](Cc2c[nH]c3ccccc23)C(=O)N1)C(=O)O [W24A] (H-GDCLGWFSGCDPNNNKCCEGYVCHAKYPWCRYDL-OH; disulfide 3-18, 10-23, 17-30 (inferred); N-terminus and C-terminus assumed) was run?
Its pIC50 is < 6.00.

And the “Loss (reduction) in potency vs rSsp1a at hNaV1.2” value [1]?
The value was ≥ 10 fold.

What about the pIC50 [2] of the same compound?
The pIC50 was < 6.00.

What about the pIC50 [3] of the same compound?
Its pIC50 is < 6.00.

What about the “Loss (reduction) in potency vs rSsp1a at hNaV1.7” value [3] of the same compound?
The value was ≥ 10 fold.

How did the pIC50 [1] turn out when CC(C)C[C@H](NC(=O)[C@H](CC(=O)O)NC(=O)[C@@H](NC(=O)[C@H](CCCNC(=N)N)NC(=O)[C@@H]1CSSC[C@@H]2NC(=O)[C@H](CCCCN)NC(=O)[C@H](CC(N)=O)NC(=O)[C@H](CC(N)=O)NC(=O)[C@H](CC(N)=O)NC(=O)[C@@H]3CCCN3C(=O)[C@H](CC(=O)O)NC(=O)[C@@H]3CSSC[C@H](NC(=O)[C@H](C(C)C)NC(=O)[C@H](Cc4ccc(O)cc4)NC(=O)CNC(=O)[C@H](CCC(=O)O)NC(=O)[C@H](CSSC[C@H](NC(=O)[C@H](CC(=O)O)NC(=O)CN)C(=O)N[C@@H](CC(C)C)C(=O)NCC(=O)N[C@@H](Cc4c[nH]c5ccccc45)C(=O)N[C@@H](Cc4ccccc4)C(=O)N[C@@H](CO)C(=O)NCC(=O)N3)NC2=O)C(=O)N[C@@H](Cc2c[nH]cn2)C(=O)N[C@@H](Cc2c[nH]c3ccccc23)C(=O)N[C@@H](CCCCN)C(=O)N[C@@H](Cc2ccc(O)cc2)C(=O)N2CCC[C@H]2C(=O)N[C@@H](Cc2c[nH]c3ccccc23)C(=O)N1)[C@@H](C)O)C(=O)O [Y31T] was run?
The pIC50 was 6.06.

What about the pIC50 [2] of the same compound?
Its pIC50 is < 5.52.

And the pIC50 [3]?
Its pIC50 is 6.26.

How did the pIC50 [1] turn out when CC(C)C[C@H](NC(=O)[C@H](CC(=O)O)NC(=O)[C@H](Cc1ccc(O)cc1)NC(=O)[C@H](CCCNC(=N)N)NC(=O)[C@@H]1CSSC[C@@H]2NC(=O)[C@H](CCCCN)NC(=O)[C@H](CC(N)=O)NC(=O)[C@H](CC(N)=O)NC(=O)[C@H](CC(N)=O)NC(=O)[C@@H]3CCCN3C(=O)[C@H](CC(=O)O)NC(=O)[C@@H]3CSSC[C@H](NC(=O)[C@H](C(C)C)NC(=O)[C@H](CC(C)C)NC(=O)CNC(=O)[C@H](CCC(=O)O)NC(=O)[C@H](CSSC[C@H](NC(=O)[C@H](CC(=O)O)NC(=O)CN)C(=O)N[C@@H](CC(C)C)C(=O)NCC(=O)N[C@@H](Cc4c[nH]c5ccccc45)C(=O)N[C@@H](Cc4ccccc4)C(=O)N[C@@H](CO)C(=O)NCC(=O)N3)NC2=O)C(=O)N[C@@H](Cc2c[nH]cn2)C(=O)N[C@@H](Cc2c[nH]c3ccccc23)C(=O)N[C@@H](CCCCN)C(=O)N[C@@H](Cc2ccc(O)cc2)C(=O)N2CCC[C@H]2C(=O)N[C@@H](Cc2c[nH]c3ccccc23)C(=O)N1)C(=O)O [Y20L] was run?
The pIC50 was 6.47.

What about the pIC50 [2] of the same compound?
Its pIC50 is 6.32.

What about the pIC50 [3] of the same compound?
Its pIC50 is 6.54.

Which results are given for CC(C)C[C@H](NC(=O)[C@H](CC(=O)O)NC(=O)[C@H](Cc1ccc(O)cc1)NC(=O)[C@H](CCCNC(=N)N)NC(=O)[C@@H]1CSSC[C@@H]2NC(=O)[C@H](CCCCN)NC(=O)[C@H](CC(N)=O)NC(=O)[C@H](CC(N)=O)NC(=O)[C@H](CC(N)=O)NC(=O)[C@@H]3CCCN3C(=O)[C@H](CC(=O)O)NC(=O)[C@@H]3CSSC[C@H](NC(=O)[C@H](C(C)C)NC(=O)[C@H](Cc4ccc(O)cc4)NC(=O)CNC(=O)[C@H](CCC(=O)O)NC(=O)[C@H](CSSC[C@H](NC(=O)[C@H](CC(=O)O)NC(=O)CN)C(=O)N[C@@H](CC(C)C)C(=O)NCC(=O)N[C@@H](Cc4c[nH]c5ccccc45)C(=O)N[C@@H](Cc4ccccc4)C(=O)N[C@@H](CO)C(=O)NCC(=O)N3)NC2=O)C(=O)N2CCC[C@H]2C(=O)N[C@@H](Cc2c[nH]c3ccccc23)C(=O)N[C@@H](CCCCN)C(=O)N[C@@H](Cc2ccc(O)cc2)C(=O)N2CCC[C@H]2C(=O)N[C@@H](Cc2c[nH]c3ccccc23)C(=O)N1)C(=O)O [H23P] (H-GDCLGWFSGCDPNNNKCCEGYVCPWKYPWCRYDL-OH; disulfide 3-18, 10-23, 17-30 (inferred); N-terminus and C-terminus assumed)?
pIC50 [1]: < 5.52; pIC50 [2]: < 5.52; pIC50 [3]: < 5.52

Which results are given for CC(C)C[C@H](NC(=O)[C@H](CC(=O)O)NC(=O)[C@H](Cc1ccc(O)cc1)NC(=O)[C@H](CCCNC(=N)N)NC(=O)[C@@H]1CSSC[C@@H]2NC(=O)[C@H](CCCCN)NC(=O)[C@H](CC(N)=O)NC(=O)[C@H](CC(N)=O)NC(=O)[C@H](CC(N)=O)NC(=O)[C@@H]3CCCN3C(=O)[C@H](CC(=O)O)NC(=O)[C@@H]3CSSC[C@H](NC(=O)[C@H](C(C)C)NC(=O)[C@H](Cc4ccc(O)cc4)NC(=O)CNC(=O)CNC(=O)[C@H](CSSC[C@H](NC(=O)[C@H](CC(=O)O)NC(=O)CN)C(=O)N[C@@H](CC(C)C)C(=O)NCC(=O)N[C@@H](Cc4c[nH]c5ccccc45)C(=O)N[C@@H](Cc4ccccc4)C(=O)N[C@@H](CO)C(=O)NCC(=O)N3)NC2=O)C(=O)N[C@@H](Cc2c[nH]cn2)C(=O)N[C@@H](Cc2c[nH]c3ccccc23)C(=O)N[C@@H](CCCCN)C(=O)N[C@@H](Cc2ccc(O)cc2)C(=O)N2CCC[C@H]2C(=O)N[C@@H](Cc2c[nH]c3ccccc23)C(=O)N1)C(=O)O [E18G]?
pIC50 [1]: 6.92; pIC50 [2]: 6.39; pIC50 [3]: 6.56

With CC(C)C[C@H](NC(=O)[C@H](C)NC(=O)[C@H](Cc1ccc(O)cc1)NC(=O)[C@H](CCCNC(=N)N)NC(=O)[C@@H]1CSSC[C@@H]2NC(=O)[C@H](CCCCN)NC(=O)[C@H](CC(N)=O)NC(=O)[C@H](CC(N)=O)NC(=O)[C@H](CC(N)=O)NC(=O)[C@@H]3CCCN3C(=O)[C@H](CC(=O)O)NC(=O)[C@@H]3CSSC[C@H](NC(=O)[C@H](C(C)C)NC(=O)[C@H](Cc4ccc(O)cc4)NC(=O)CNC(=O)[C@H](CCC(=O)O)NC(=O)[C@H](CSSC[C@H](NC(=O)[C@H](CC(=O)O)NC(=O)CN)C(=O)N[C@@H](CC(C)C)C(=O)NCC(=O)N[C@@H](Cc4c[nH]c5ccccc45)C(=O)N[C@@H](Cc4ccccc4)C(=O)N[C@@H](CO)C(=O)NCC(=O)N3)NC2=O)C(=O)N[C@@H](Cc2c[nH]cn2)C(=O)N[C@@H](Cc2c[nH]c3ccccc23)C(=O)N[C@@H](CCCCN)C(=O)N[C@@H](Cc2ccc(O)cc2)C(=O)N2CCC[C@H]2C(=O)N[C@@H](Cc2c[nH]c3ccccc23)C(=O)N1)C(=O)O [D32A] as the compound, how does the pIC50 [1] read?
The pIC50 was 6.96.

What about the pIC50 [2] of the same compound?
The pIC50 was 6.66.

What about the pIC50 [3] of the same compound?
The pIC50 was 6.93.

With CC(C)C[C@H](NC(=O)[C@H](CC(=O)O)NC(=O)[C@H](Cc1ccc(O)cc1)NC(=O)[C@H](CCCNC(=N)N)NC(=O)[C@@H]1CSSC[C@@H]2NC(=O)[C@H](CCCCN)NC(=O)[C@H](CC(N)=O)NC(=O)[C@H](CC(N)=O)NC(=O)[C@H](CC(N)=O)NC(=O)[C@@H]3CCCN3C(=O)[C@H](CC(=O)O)NC(=O)[C@@H]3CSSC[C@H](NC(=O)[C@H](C(C)C)NC(=O)[C@H](Cc4ccc(O)cc4)NC(=O)CNC(=O)[C@H](CCC(=O)O)NC(=O)[C@H](CSSC[C@H](NC(=O)[C@H](CC(=O)O)NC(=O)CN)C(=O)N[C@@H](CC(C)C)C(=O)NCC(=O)N[C@@H](Cc4c[nH]c5ccccc45)C(=O)N[C@@H](Cc4ccccc4)C(=O)N[C@@H](CO)C(=O)NCC(=O)N3)NC2=O)C(=O)N[C@@H](Cc2c[nH]cn2)C(=O)N[C@@H](Cc2c[nH]c3ccccc23)C(=O)N[C@@H](CCCCN)C(=O)N[C@@H](C)C(=O)N2CCC[C@H]2C(=O)N[C@@H](Cc2c[nH]c3ccccc23)C(=O)N1)C(=O)O [Y26A] (H-GDCLGWFSGCDPNNNKCCEGYVCHWKAPWCRYDL-OH; disulfide 3-18, 10-23, 17-30 (inferred); N-terminus and C-terminus assumed) as the compound, how does the pIC50 [1] read?
Its pIC50 is < 6.00.

And the “Loss (reduction) in potency vs rSsp1a at hNaV1.2” value [1]?
Its value is ≥ 10 fold.

And the pIC50 [2]?
The pIC50 was < 6.00.

And the pIC50 [3]?
Its pIC50 is < 6.00.

And the “Loss (reduction) in potency vs rSsp1a at hNaV1.7” value [3]?
The value was ≥ 10 fold.

How did the pIC50 [1] turn out when CC(C)C[C@H](NC(=O)[C@H](CC(=O)O)NC(=O)[C@H](Cc1ccc(O)cc1)NC(=O)[C@H](CCCNC(=N)N)NC(=O)[C@@H]1CSSC[C@@H]2NC(=O)[C@H](CCCCN)NC(=O)[C@H](CC(N)=O)NC(=O)[C@H](CC(N)=O)NC(=O)[C@H](CC(N)=O)NC(=O)[C@@H]3CCCN3C(=O)[C@H](CC(=O)O)NC(=O)[C@@H]3CSSC[C@H](NC(=O)[C@H](C(C)C)NC(=O)[C@H](Cc4ccc(O)cc4)NC(=O)CNC(=O)[C@H](CCC(=O)O)NC(=O)[C@H](CSSC[C@H](NC(=O)[C@H](CC(=O)O)NC(=O)CN)C(=O)N[C@@H](CC(C)C)C(=O)NCC(=O)N[C@@H](Cc4c[nH]c5ccccc45)C(=O)N[C@@H](Cc4ccccc4)C(=O)N[C@@H](CCCCN)C(=O)NCC(=O)N3)NC2=O)C(=O)N[C@@H](Cc2c[nH]cn2)C(=O)N[C@@H](Cc2c[nH]c3ccccc23)C(=O)N[C@@H](CCCCN)C(=O)N[C@@H](Cc2ccc(O)cc2)C(=O)N2CCC[C@H]2C(=O)N[C@@H](Cc2c[nH]c3ccccc23)C(=O)N1)C(=O)O [S7K] was run?
The pIC50 was 6.70.

And the pIC50 [2]?
The pIC50 was 6.03.

And the pIC50 [3]?
Its pIC50 is 6.74.
